Test results: patent publication US6525001B1, “Substituted pyrimidine and pyridine herbicides” (Mid-American Commercialization Corporation, priority 1997, dated 2003)

Legend:
Assay in all cases: Test B pre-/postemergence
Assay type in all cases: in vivo
Parameters in all cases: key: 0 is no effect; 10 is complete control
[1] = test system: bedstraw (Galium aparine)
In short: (§1)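 Compounds in a surfactant-containing, non-phytotoxic solvent blend are applied to freshly planted seed (preemergence) and, concurrently, to seedlings of 2 to 18 cm at 1–4 leaves (postemergence). Plants stay in the greenhouse twelve to sixteen days and are then scored visually from 0 (no effect) to 10 (complete control).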

[2] = test system: blackgrass (Alopecurus myosuroides)
In short: as §1

[3] = test system: broadleaf signalgrass (Brachiaria decumbens)
In short: as §1

[4] = test system: cocklebur (Xanthium strumarium)
In short: as §1

corn (Zea mays) = test system: corn (Zea mays)
In short: as §1

[5] = test system: crabgrass (Digitaria sanguinalis)
In short: as §1

[6] = test system: giant foxtail (Setaria faberii)
In short: as §1

[7] = test system: momingglory (Ipomoea hederacea)
In short: as §1

[8] = test system: pigweed (Amaranthus retroflexus)
In short: as §1

[9] = test system: purple nutsedge (Cyperus rotundus)
In short: as §1

[10] = test system: sugar beet (Beta vulgaris)
In short: as §1

[11] = test system: velvetleaf (Abutilon theophrasti)
In short: as §1

[12] = test system: wheat (Triticum aestivum)
In short: as §1

wild oat (Avena fatua) = test system: wild oat (Avena fatua)
In short: as §1

[13] = Rate 250 g/ha, Postemergence (so in the source)

## COc1cnc(-c2ccc(C(F)(F)F)cc2)nc1Cc1cccc(C(F)(F)F)c1 [Compound 23]
[1]; Rate 62 g/ha, Postemergence
  Plant response rating, Bedstraw: 9
[1]; Rate 125 g/ha, Postemergence
  Plant response rating, Bedstraw: 9
[1]; Rate 125 g/ha, Preemergence
  Bedstraw plant response rating: 8
[1]; Rate 250 g/ha, Postemergence
  Plant response rating, Bedstraw: 9
[1]; Rate 250 g/ha, Preemergence
  Plant response rating, Bedstraw: 9
[2]; Rate 62 g/ha, Postemergence
  Plant response rating, Blackgrass: 6
[2]; Rate 62 g/ha, Preemergence
  Blackgrass plant response rating: 6
[2]; Rate 125 g/ha, Postemergence
  Plant response rating, Blackgrass: 7
[2]; Rate 125 g/ha, Preemergence
  Blackgrass plant response rating: 9
[2]; Rate 250 g/ha, Postemergence
  Plant response rating, Blackgrass: 9
[2]; Rate 250 g/ha, Preemergence
  Plant response rating, Blackgrass: 9
[3]; Rate 62 g/ha, Postemergence
  Plant response rating, B. signalgrass: 4
[3]; Rate 62 g/ha, Preemergence
  B. signalgrass plant response rating: 9
[3]; Rate 125 g/ha, Postemergence
  Plant response rating, B. signalgrass: 5
[3]; Rate 125 g/ha, Preemergence
  B. signalgrass plant response rating: 9
[3]; Rate 250 g/ha, Postemergence
  Plant response rating, B. signalgrass: 9
[3]; Rate 250 g/ha, Preemergence
  Plant response rating, B. signalgrass: 9
[4]; Rate 62 g/ha, Postemergence
  Plant response rating, Cocklebur: 9
[4]; Rate 62 g/ha, Preemergence
  Cocklebur plant response rating: 1
[4]; Rate 125 g/ha, Postemergence
  Plant response rating, Cocklebur: 10
[4]; Rate 125 g/ha, Preemergence
  Cocklebur plant response rating: 1
[4]; Rate 250 g/ha, Postemergence
  Plant response rating, Cocklebur: 10
[4]; Rate 250 g/ha, Preemergence
  Plant response rating, Cocklebur: 3
Corn (Zea mays); Rate 62 g/ha, Postemergence
  Plant response rating, Corn: 2
Corn (Zea mays); Rate 62 g/ha, Preemergence
  Corn plant response rating: 0
Corn (Zea mays); Rate 125 g/ha, Postemergence
  Plant response rating, Corn: 3
Corn (Zea mays); Rate 125 g/ha, Preemergence
  Corn plant response rating: 1
Corn (Zea mays); Rate 250 g/ha, Postemergence
  Plant response rating, Corn: 3
Corn (Zea mays); Rate 250 g/ha, Preemergence
  Plant response rating, Corn: 1
[5]; Rate 62 g/ha, Postemergence
  Plant response rating, Crabgrass: 7
[5]; Rate 62 g/ha, Preemergence
  Crabgrass plant response rating: 9
[5]; Rate 125 g/ha, Postemergence
  Plant response rating, Crabgrass: 9
[5]; Rate 125 g/ha, Preemergence
  Crabgrass plant response rating: 10
[5]; Rate 250 g/ha, Postemergence
  Plant response rating, Crabgrass: 9
[5]; Rate 250 g/ha, Preemergence
  Plant response rating, Crabgrass: 10
[6]; Rate 62 g/ha, Postemergence
  Plant response rating, Giant foxtail: 2
[6]; Rate 62 g/ha, Preemergence
  Giant foxtail plant response rating: 10
[6]; Rate 125 g/ha, Postemergence
  Plant response rating, Giant foxtail: 5
[6]; Rate 125 g/ha, Preemergence
  Giant foxtail plant response rating: 10
[6]; Rate 250 g/ha, Postemergence
  Plant response rating, Giant foxtail: 9
[6]; Rate 250 g/ha, Preemergence
  Plant response rating, Giant foxtail: 10
[7]; Rate 62 g/ha, Postemergence
  Plant response rating, Morningglory: 6
[7]; Rate 62 g/ha, Preemergence
  Morningglory plant response rating: 4
[7]; Rate 125 g/ha, Postemergence
  Plant response rating, Morningglory: 9
[7]; Rate 125 g/ha, Preemergence
  Morningglory plant response rating: 8
[7]; Rate 250 g/ha, Postemergence
  Plant response rating, Morningglory: 9
[7]; Rate 250 g/ha, Preemergence
  Plant response rating, Morningglory: 10
[8]; Rate 62 g/ha, Postemergence
  Plant response rating, Redroot pigweed: 9
[8]; Rate 62 g/ha, Preemergence
  Redroot pigweed plant response rating: 9
[8]; Rate 125 g/ha, Postemergence
  Plant response rating, Redroot pigweed: 10
[8]; Rate 125 g/ha, Preemergence
  Redroot pigweed plant response rating: 9
[8]; Rate 250 g/ha, Postemergence
  Plant response rating, Redroot pigweed: 10
[8]; Rate 250 g/ha, Preemergence
  Plant response rating, Redroot pigweed: 10
[9]; Rate 62 g/ha, Postemergence
  Plant response rating, Nutsedge: 0
[9]; Rate 125 g/ha, Postemergence
  Plant response rating, Nutsedge: 0
[9]; Rate 125 g/ha, Preemergence
  Nutsedge plant response rating: 0
[10]; Rate 62 g/ha, Postemergence
  Plant response rating, Sugarbeets: 10
[10]; Rate 62 g/ha, Preemergence
  Sugarbeets plant response rating: 8
[10]; Rate 125 g/ha, Postemergence
  Plant response rating, Sugarbeets: 10
[10]; Rate 125 g/ha, Preemergence
  Sugarbeets plant response rating: 8
[10]; Rate 250 g/ha, Postemergence
  Plant response rating, Sugarbeets: 10
[10]; Rate 250 g/ha, Preemergence
  Plant response rating, Sugarbeets: 10
[11]; Rate 62 g/ha, Postemergence
  Plant response rating, Velvetleaf: 9
[11]; Rate 62 g/ha, Preemergence
  Velvetleaf plant response rating: 1
[11]; Rate 125 g/ha, Postemergence
  Plant response rating, Velvetleaf: 9
[11]; Rate 125 g/ha, Preemergence
  Velvetleaf plant response rating: 3
[11]; Rate 250 g/ha, Postemergence
  Plant response rating, Velvetleaf: 9
[11]; Rate 250 g/ha, Preemergence
  Plant response rating, Velvetleaf: 10
[12]; Rate 62 g/ha, Postemergence
  Plant response rating, Wheat: 3
[12]; Rate 62 g/ha, Preemergence
  Wheat plant response rating: 2
[12]; Rate 125 g/ha, Postemergence
  Plant response rating, Wheat: 4
[12]; Rate 125 g/ha, Preemergence
  Wheat plant response rating: 3
[12]; Rate 250 g/ha, Postemergence
  Plant response rating, Wheat: 5
[12]; Rate 250 g/ha, Preemergence
  Plant response rating, Wheat: 6
Wild oat (Avena fatua); Rate 62 g/ha, Postemergence
  Plant response rating, Wild oats: 5
Wild oat (Avena fatua); Rate 62 g/ha, Preemergence
  Wild oats plant response rating: 7
Wild oat (Avena fatua); Rate 125 g/ha, Postemergence
  Plant response rating, Wild oats: 6
Wild oat (Avena fatua); Rate 125 g/ha, Preemergence
  Wild oats plant response rating: 8
Wild oat (Avena fatua); Rate 250 g/ha, Postemergence
  Plant response rating, Wild oats: 9
Wild oat (Avena fatua); Rate 250 g/ha, Preemergence
  Plant response rating, Wild oats: 9

## Cc1cnc(-n2ccc(C(F)(F)F)n2)nc1Cc1cccc(OC(F)(F)F)c1 [Compound 42]
[1]; Rate 62 g/ha, Postemergence
  Plant response rating, Bedstraw: 9
[1]; Rate 62 g/ha, Preemergence
  Bedstraw plant response rating: 7
[1]; Rate 125 g/ha, Postemergence
  Plant response rating, Bedstraw: 9
[1]; Rate 125 g/ha, Preemergence
  Bedstraw plant response rating: 8
[1]; [13]
  Plant response rating, Bedstraw: 8
[2]; Rate 62 g/ha, Postemergence
  Plant response rating, Blackgrass: 6
[2]; Rate 62 g/ha, Preemergence
  Blackgrass plant response rating: 6
[2]; Rate 125 g/ha, Postemergence
  Plant response rating, Blackgrass: 7
[2]; Rate 125 g/ha, Preemergence
  Blackgrass plant response rating: 10
[2]; Rate 250 g/ha, Postemergence
  Plant response rating, Blackgrass: 7
[2]; [13]
  Plant response rating, Blackgrass: 10
[3]; Rate 62 g/ha, Postemergence
  Plant response rating, B. signalgrass: 6
[3]; Rate 62 g/ha, Preemergence
  B. signalgrass plant response rating: 9
[3]; Rate 125 g/ha, Postemergence
  Plant response rating, B. signalgrass: 7
[3]; Rate 125 g/ha, Preemergence
  B. signalgrass plant response rating: 9
[3]; Rate 250 g/ha, Postemergence
  Plant response rating, B. signalgrass: 7
[3]; Rate 250 g/ha, Postemergence as printed in head r139 (second section for compounds 26-50)
  Plant response rating, B. signalgrass: 10
[4]; Rate 62 g/ha, Postemergence
  Plant response rating, Cocklebur: 9
[4]; Rate 62 g/ha, Preemergence
  Cocklebur plant response rating: 1
[4]; Rate 125 g/ha, Postemergence
  Plant response rating, Cocklebur: 9
[4]; Rate 125 g/ha, Preemergence
  Cocklebur plant response rating: 3
[4]; Rate 250 g/ha, Postemergence
  Plant response rating, Cocklebur: 9
[4]; [13]
  Plant response rating, Cocklebur: 8
Corn (Zea mays); Rate 62 g/ha, Postemergence
  Plant response rating, Corn: 3
Corn (Zea mays); Rate 62 g/ha, Preemergence
  Corn plant response rating: 0
Corn (Zea mays); Rate 125 g/ha, Postemergence
  Plant response rating, Corn: 3
Corn (Zea mays); Rate 125 g/ha, Preemergence
  Corn plant response rating: 1
Corn (Zea mays); Rate 250 g/ha, Postemergence
  Plant response rating, Corn: 8
Corn (Zea mays); [13]
  Plant response rating, Corn: 2
[5]; Rate 62 g/ha, Postemergence
  Plant response rating, Crabgrass: 4
[5]; Rate 62 g/ha, Preemergence
  Crabgrass plant response rating: 9
[5]; Rate 125 g/ha, Postemergence
  Plant response rating, Crabgrass: 7
[5]; Rate 125 g/ha, Preemergence
  Crabgrass plant response rating: 10
[5]; Rate 250 g/ha, Postemergence
  Plant response rating, Crabgrass: 8
[5]; [13]
  Plant response rating, Crabgrass: 10
[6]; Rate 62 g/ha, Postemergence
  Plant response rating, Giant foxtail: 6
[6]; Rate 62 g/ha, Preemergence
  Giant foxtail plant response rating: 10
[6]; Rate 125 g/ha, Postemergence
  Giant foxtail plant response rating: 7
[6]; Rate 125 g/ha, Preemergence
  Giant foxtail plant response rating: 10
[6]; Rate 250 g/ha, Postemergence
  Plant response rating, Giant foxtail: 9
[6]; [13]
  Plant response rating, Giant foxtail: 10
[7]; Rate 62 g/ha, Postemergence
  Plant response rating, Morningglory: 8
[7]; Rate 62 g/ha, Preemergence
  Morningglory plant response rating: 9
[7]; Rate 125 g/ha, Postemergence
  Morningglory plant response rating: 9
[7]; Rate 125 g/ha, Preemergence
  Morningglory plant response rating: 10
[7]; Rate 250 g/ha, Postemergence
  Plant response rating, Morningglory: 9
[7]; [13]
  Plant response rating, Morningglory: 10
[8]; Rate 62 g/ha, Postemergence
  Plant response rating, Redroot pigweed: 9
[8]; Rate 62 g/ha, Preemergence
  Redroot pigweed plant response rating: 9
[8]; Rate 125 g/ha, Postemergence
  Redroot pigweed plant response rating: 9
[8]; Rate 125 g/ha, Preemergence
  Redroot pigweed plant response rating: 10
[8]; Rate 250 g/ha, Postemergence
  Plant response rating, Redroot pigweed: 9
[8]; [13]
  Plant response rating, Redroot pigweed: 10
[9]; Rate 62 g/ha, Postemergence
  Plant response rating, Nutsedge: 0
[9]; Rate 62 g/ha, Preemergence
  Nutsedge plant response rating: 0
[9]; Rate 125 g/ha, Postemergence
  Nutsedge plant response rating: 0
[9]; Rate 250 g/ha, Postemergence
  Plant response rating, Nutsedge: 2
[9]; [13]
  Plant response rating, Nutsedge: 0
[10]; Rate 62 g/ha, Postemergence
  Plant response rating, Sugarbeets: 10
[10]; Rate 62 g/ha, Preemergence
  Sugarbeets plant response rating: 10
[10]; Rate 125 g/ha, Postemergence
  Sugarbeets plant response rating: 10
[10]; Rate 125 g/ha, Preemergence
  Plant response rating, Sugarbeets: 10
[10]; Rate 250 g/ha, Postemergence
  Plant response rating, Sugarbeets: 10
[10]; [13]
  Plant response rating, Sugarbeets: 10
[11]; Rate 62 g/ha, Postemergence
  Plant response rating, Velvetleaf: 8
[11]; Rate 62 g/ha, Preemergence
  Velvetleaf plant response rating: 10
[11]; Rate 125 g/ha, Postemergence
  Velvetleaf plant response rating: 9
[11]; Rate 125 g/ha, Preemergence
  Plant response rating, Velvetleaf: 7
[11]; Rate 250 g/ha, Postemergence
  Plant response rating, Velvetleaf: 9
[11]; [13]
  Plant response rating, Velvetleaf: 10
[12]; Rate 62 g/ha, Postemergence
  Wheat plant response rating: 2
[12]; Rate 62 g/ha, Preemergence
  Wheat plant response rating: 1
[12]; Rate 125 g/ha, Postemergence
  Wheat plant response rating: 3
[12]; Rate 125 g/ha, Preemergence
  Plant response rating, Wheat: 2
[12]; Rate 250 g/ha, Postemergence
  Plant response rating, Wheat: 4
[12]; [13]
  Plant response rating, Wheat: 4
Wild oat (Avena fatua); Rate 62 g/ha, Postemergence
  Wild oats plant response rating: 6
Wild oat (Avena fatua); Rate 62 g/ha, Preemergence
  Wild oats plant response rating: 4
Wild oat (Avena fatua); Rate 125 g/ha, Postemergence
  Wild oats plant response rating: 6
Wild oat (Avena fatua); Rate 125 g/ha, Preemergence
  Plant response rating, Wild oats: 8
Wild oat (Avena fatua); Rate 250 g/ha, Postemergence
  Plant response rating, Wild oats: 6
Wild oat (Avena fatua); [13]
  Plant response rating, Wild oats: 9
